Laboratory results from patent US20230310388A1, “Methods and Compositions for Treating Fungal Infections” (Neoculi Pty Ltd, priority 2020, published 2023).
Converted amounts (≈) assume the structure as drawn. “And” between values parts separate entries of the source, which are not always exact repeats. Equal values may be shown once. Read-outs that look alike come from different tables or passages of the source. One block for each molecule: values may come before it.

Assays:
Type in all cases: cell-based
Malassezia pachydermatis [1] = test: MIC, mSAB broth microdilution (Example 1); details: for activity against all 13 isolates of Malassezia pachydermatis: summary in words
Text: There is no recommended Clinical & Laboratory Standards Institute (CLSI) standard for M. pachydermatis. In the literature there are a number of papers which have developed Minimum Inhibitory Concentration (MIC) methodology for Malassezia species isolated from both humans and animals (ie both lipophilic and non-lipophilic species). In all papers, the methodology has been altered from the original CLSI protocols in order to overcome four main problem areas involved in testing this yeast. • 1) Finding a suitable growth medium for Malassezia, especially the lipophilic species. […] When testing the azole group of anti-fungal agents, there is also the well known trailing end point problem with MIC determination. Trailing occurs when the turbidity continually decreases as the drug concentration increases but the suspension fails to become optically clear (partial inhibition of growth over an extended range of antifungal concentrations). The following method was originally developed by Eichenberg et al. (2003) (mSAB broth microdilution method). The mSAB method was devised to follow as closely as possible the CLSI guidelines whilst still allowing for the distinct biochemical and growth requirements of M. pachydermatis. Sabouraud dextrose broth with 1% Tween 80 was chosen as the assay medium as it allowed for excellent growth of the organism. Higher inoculum concentrations (1-4×10^6 CFU/ml) and increased time of incubation (48 to 72 hours) were used to enable sufficient growth of the test strains.

[2] = test system: Candida albicans ATCC14053; test: Broth micro-dilution screen at 16 μg/mL and MIC (Example 9); details: for MIC: C. albicans ATCC14053, test range 0.25-64 μg/mL, duplicate; for Screen at 16 μg/mL: single concentration 16 μg/mL, Growth or No growth of C. albicans ATCC14053
Protocol: The antifungal activity of 201 NCL analogs against Candida albicans ATCC14053 in vitro was investigated. A broth micro-dilution method was used, according to CLSI guidelines as described. NCL analogs were dissolved in DMSO and originally screened at a single concentration of 16 μg/mL.

Malassezia pachydermatis [3] = test: Checkerboard MIC/FICI of NCL812 and EDTA (Example 2); details: for MIC: Malassezia pachydermatis, read-out: MIC, compound alone; for MIC, combination: EDTA + NCL812 combination; for FICI: NCL812 with EDTA
Text: There is no recommended CLSI standard for M. pachydermatis. In the literature there are a number of papers which have developed MIC methodology for Malassezia species isolated from both humans and animals (ie both lipophilic and non-lipophilic species). In all papers the methodology has been altered from the original CLSI protocols in order to overcome four main problem areas involved in testing this yeast. • 1) Finding a suitable growth medium for Malassezia, especially the lipophilic species. […] The method followed was originally developed by Eichenberg et al. (2003) (mSAB broth microdilution method). The mSAB method was devised to follow as closely as possible the CLSI guidelines whilst still allowing for the distinct biochemical and growth requirements of M. pachydermatis. […] Briefly, 150 μl of SDB+1% TW80 was added to each well of a 96-well microtiter plate, which was used as the checkerboard challenge plate. Next, a two-fold serial dilution of NCL 812 (robenidine) working solution was performed along the abscissa (column 3 to 12 only) (1/2 to 1/1024 dilution ratio). […] Experiments were performed in duplicate and repeated twice. […] The FICI values were interpreted as follows (Hamoud et al., 2015).

Candida albicans = test: as above; details: isolate Candida albicans

MIC (Malassezia pachydermatis [1]; Malassezia isolate M1-017): 1 mg/L (≈ 2.78 µM)
MIC (Malassezia pachydermatis [1]; Malassezia isolate M-018): 1 mg/L (≈ 2.78 µM)
MIC (Malassezia pachydermatis [1]; Malassezia isolate M-020): 1 mg/L (≈ 2.78 µM)
MIC (Malassezia pachydermatis [1]; Malassezia isolate M-036): 1 mg/L (≈ 2.78 µM)
MIC (Malassezia pachydermatis [1]; Malassezia isolate M-037): 1 mg/L (≈ 2.78 µM)
MIC (Malassezia pachydermatis [1]; Malassezia isolate M-038): 1 mg/L (≈ 2.78 µM)
MIC (Malassezia pachydermatis [1]; Malassezia isolate M-040): 0.5 mg/L and 1 mg/L
MIC (Malassezia pachydermatis [1]; Malassezia isolate M-052): 1 mg/L (≈ 2.78 µM)
MIC (Malassezia pachydermatis [1]; Malassezia isolate M-055): 1 mg/L (≈ 2.78 µM)
MIC (Malassezia pachydermatis [1]; Malassezia isolate M-060): 1 mg/L (≈ 2.78 µM)
MIC (Malassezia pachydermatis [1]; Malassezia isolate M-066): 1 mg/L (≈ 2.78 µM)
MIC (Malassezia pachydermatis [1]; Malassezia isolate M-067): 0.5 mg/L and 1 mg/L
MIC (Malassezia pachydermatis [1]; Malassezia isolate M-069): 1 mg/L (≈ 2.78 µM)
MIC [2]: 1 mg/L and 2 mg/L
SMILES: Cc1ccc(/C=N/Nc2cc(N/N=C/c3ccc(C)cc3)nc(N)n2)cc1 [NCL195]
activity against all 13 isolates of Malassezia pachydermatis (Malassezia pachydermatis [1]): highly active
Screen at 16 μg/mL [2]: No growth

MIC (Malassezia pachydermatis [1]; Malassezia isolate M-036): 2 mg/L (≈ 5.98 µM)
MIC (Malassezia pachydermatis [1]; Malassezia isolate M-066): 2 mg/L (≈ 5.98 µM)
MIC (Malassezia pachydermatis [1]; Malassezia pachydermatis, Malassezia isolate M1-017, read-out: MIC): 2 mg/L (≈ 5.98 µM)
MIC (Malassezia pachydermatis [1]; Malassezia pachydermatis, Malassezia isolate M-018, read-out: MIC): 2 mg/L (≈ 5.98 µM)
MIC (Malassezia pachydermatis [1]; Malassezia pachydermatis, Malassezia isolate M-020, read-out: MIC): 2 mg/L (≈ 5.98 µM)
MIC (Malassezia pachydermatis [1]; Malassezia pachydermatis, Malassezia isolate M-036, read-out: MIC): 1 mg/L (≈ 2.99 µM)
MIC (Malassezia pachydermatis [1]; Malassezia pachydermatis, Malassezia isolate M-037, read-out: MIC): 2 mg/L (≈ 5.98 µM)
MIC (Malassezia pachydermatis [1]; Malassezia pachydermatis, Malassezia isolate M-038, read-out: MIC): 1 mg/L (≈ 2.99 µM)
MIC (Malassezia pachydermatis [1]; Malassezia pachydermatis, Malassezia isolate M-040, read-out: MIC): 2 mg/L (≈ 5.98 µM)
MIC (Malassezia pachydermatis [1]; Malassezia pachydermatis, Malassezia isolate M-052, read-out: MIC): 1 mg/L (≈ 2.99 µM)
MIC (Malassezia pachydermatis [1]; Malassezia pachydermatis, Malassezia isolate M-055, read-out: MIC): 1 mg/L (≈ 2.99 µM)
MIC (Malassezia pachydermatis [1]; Malassezia pachydermatis, Malassezia isolate M-060, read-out: MIC): 1 mg/L (≈ 2.99 µM)
MIC (Malassezia pachydermatis [1]; Malassezia pachydermatis, Malassezia isolate M-066, read-out: MIC): 1 mg/L (≈ 2.99 µM)
MIC (Malassezia pachydermatis [1]; Malassezia pachydermatis, Malassezia isolate M-067, read-out: MIC): 1 mg/L (≈ 2.99 µM)
MIC (Malassezia pachydermatis [1]; Malassezia pachydermatis, Malassezia isolate M-069, read-out: MIC): 2 mg/L (≈ 5.98 µM)
MIC (Malassezia pachydermatis [3]; isolate ML18): 1 mg/L
MIC (Malassezia pachydermatis [3]; isolate ML19): 2 mg/L
MIC (Malassezia pachydermatis [3]; isolate ML20): 1 mg/L
MIC (Malassezia pachydermatis [3]; isolate ML21): 2 mg/L
MIC (Malassezia pachydermatis [3]; isolate ML36): 2 mg/L
MIC (Malassezia pachydermatis [3]; isolate ML41): 2 mg/L
MIC (Malassezia pachydermatis [3]; isolate ML42): 2 mg/L
MIC (Malassezia pachydermatis [3]; isolate ML43): 4 mg/L
MIC (Malassezia pachydermatis [3]; isolate ML44): 1 mg/L
MIC (Malassezia pachydermatis [3]; isolate ML69): 2 mg/L
MIC, combination (Malassezia pachydermatis [3]; isolate ML18): 0.5 mg/L
MIC, combination (Malassezia pachydermatis [3]; isolate ML19): 1 mg/L
MIC, combination (Malassezia pachydermatis [3]; isolate ML20): 0.5 mg/L
MIC, combination (Malassezia pachydermatis [3]; isolate ML21): 1 mg/L
MIC, combination (Malassezia pachydermatis [3]; isolate ML36): 1 mg/L
MIC, combination (Malassezia pachydermatis [3]; isolate ML41): 0.5 mg/L
MIC, combination (Malassezia pachydermatis [3]; isolate ML42): 1 mg/L
MIC, combination (Malassezia pachydermatis [3]; isolate ML43): 2 mg/L
MIC, combination (Malassezia pachydermatis [3]; isolate ML44): 0.5 mg/L
MIC, combination (Malassezia pachydermatis [3]; isolate ML69): 1 mg/L
MIC, combination (Candida albicans; EDTA + NCL812 combination): 1 mg/L
MIC (Candida albicans; read-out: MIC, compound alone): 4 mg/L
MIC ([2]; Candida albicans, read-out: MIC): 0.5 mg/L (≈ 1.5 µM)
SMILES: N=C(N/N=C/c1ccc(Cl)cc1)N/N=C/c1ccc(Cl)cc1 [NCL812, robenidine, reference compound]
activity against all 13 isolates of Malassezia pachydermatis (Malassezia pachydermatis [1]): highly active
interaction of NCL812 and EDTA (FICI interpretation) (Malassezia pachydermatis [3]; each of the 11 isolates (10 Malassezia, 1 Candida albicans)): Synergy (FICI ≤ 0.5)
FICI (Malassezia pachydermatis [3]; isolate ML18): 1
FICI (Malassezia pachydermatis [3]; isolate ML19): 1
FICI (Malassezia pachydermatis [3]; isolate ML20): 1
FICI (Malassezia pachydermatis [3]; isolate ML21): 1
FICI (Malassezia pachydermatis [3]; isolate ML36): 1
FICI (Malassezia pachydermatis [3]; isolate ML41): 0.75
FICI (Malassezia pachydermatis [3]; isolate ML42): 1
FICI (Malassezia pachydermatis [3]; isolate ML43): 1
FICI (Malassezia pachydermatis [3]; isolate ML44): 1
FICI (Malassezia pachydermatis [3]; isolate ML69): 1
FICI (Candida albicans; NCL812 with EDTA): 0.75
activity against Candida albicans at the low discriminating concentration ([2]; 16 μg/mL screen, summary in words): high activity
Screen at 16 μg/mL [2]: No growth
